# According to US11857544B2, “Composition or method including (t)ew-7197 for treating or preventing corneal endothelial diseases” (THE DOSHISHA, priority 2017, dated 2024):
# Test system: PARP
# Assay: Western blot for PARP in TGF-β-stimulated iFECD
# Format: cell-based, human
# Conditions: 0.1, 1, 10 μM
# Procedure: […] were seeded on a 12-well plate at a ratio of 8×10^4 cells per well, and cultured at 37° C. (5% CO2) for 24 hours. DMEM+10% FBS+1% P/S was used as the medium. After 24 hours, the medium was removed. EW-7197 (Selleck Chemicals, 57530) was added so that the final concentration would be 0.1, 1, or 10 μM, and SB431542 (WAKO, 192-16541) was added so that the final concentration would be 10 μM, and the medium was cultured for 24 hours. DMEM+2% FBS+1% P/S was used as the medium. After 24 hours, the medium was removed and cultured […] so that the final concentration of 10 ng/ml of Transforming Growth Factor-132 Human recombinant (WAKO, 200-19911) and […] would be 0.1, 1, and 10 μM, and that of SB431542 would be 10 μM. DMEM+2% FBS+1% P/S was used as the medium. After 24 hours, the cell morphology and apoptosis were observed under a phase contrast microscope. To retrieve floating and dead cells, the medium was retrieved on ice, cells were washed twice with 1×PBS(-) and the solution thereof was also retrieved. The solution was centrifuged for 5 min at 4° C. and 800 g and the supernatant was discarded to obtain a precipitate. […] The detected band intensities were analyzed with Lumino Image Analyzer LAS-4000 mini (Fuji Film) and ImageQuantTM software (GE Healthcare).
structure (smiles),measurement,value
"Cc1cccc(-c2[nH]c(CNc3ccccc3F)nc2-c2ccc3ncnn3c2)n1 [EW-7197, N-((4-([1,2,4]triazolo[1,5-a]pyridin-6-yl)-5-(6-methylpyridin-2-yl)-1H-imidazol-2-yl)methyl)-2-fluoroaniline]",PARP (about 89 kDa),suppressed to the same degree as the control group without stimulation with TGF-β or 10 μM of SB431542
